The source of these data is patent US7928121B2, “5-HT7 receptor antagonists” (Laboratorios Del Dr. Esteve, S.A., priority 2004, dated 2011).

The structures appear in SMILES notation. Counter-ions that a name gives are not always drawn.

In the assay the target is T1, Cloned Human Serotonin Receptor, Subtype 7 (h5HT7) (Homo sapiens, UniProt P34969).
T1 construct: purchased PerkinElmer 6120512; host or cells: CHO cells (membranes coated on Basic FlashPlate SMP200)
T1 sequence (P34969 whole entry): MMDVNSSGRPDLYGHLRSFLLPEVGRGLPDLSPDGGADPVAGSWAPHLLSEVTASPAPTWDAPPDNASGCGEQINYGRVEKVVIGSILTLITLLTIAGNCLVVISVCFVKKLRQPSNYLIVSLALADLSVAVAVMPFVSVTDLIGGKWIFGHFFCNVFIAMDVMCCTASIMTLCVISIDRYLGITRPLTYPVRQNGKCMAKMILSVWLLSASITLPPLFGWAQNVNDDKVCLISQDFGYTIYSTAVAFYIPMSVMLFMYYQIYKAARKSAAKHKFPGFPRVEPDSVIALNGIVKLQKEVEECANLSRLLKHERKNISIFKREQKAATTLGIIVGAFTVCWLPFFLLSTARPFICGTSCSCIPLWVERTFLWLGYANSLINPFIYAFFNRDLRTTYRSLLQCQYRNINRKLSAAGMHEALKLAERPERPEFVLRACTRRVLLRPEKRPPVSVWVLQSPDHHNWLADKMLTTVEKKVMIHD
In words: Radioligand binding assay, cloned human serotonin receptor subtype 7 (h5HT7) expressed in CHO cells, [125I]LSD, Flashplate. The note with it: radioligand [125I]LSD 0.82 nM, room temperature, 240 minutes, triplicate determinations, read-out: 5-HT7 IC-50. Here is the method:
Biological Assays Radioligand Binding
Radioligand binding assays were performed using the Cloned Human Serotonin Receptor, Subtype 7 (h5HT7), expressed in CHO cells, coated on Flashplate (Basic FlashPlate Cat.: SMP200) from PerkinElmer (Cat.: 6120512). The protocol assay was essentially the recommended protocol in the Technical Data Sheet by PerkinEmer Life and Analytical Sciences. The Mass membrane protein/well was typically 12 μg and the Receptor/well was about 9-10 fmoles. The Flashplate were let equilibrate at room temperature for one hour before the addition of the components of the assay mixture. The binding buffer was: 50 mM Tris-HCl, pH 7.4, containing 10 mM MgCl2, 0.5 mM EDTA and 0.5% BSA. The radioligand was [^125I]LSD at a final concentration of 0.82 nM. Nonspecific binding was determined with 50 μM of Clozapine. The assay volume was 25 μl. TopSeal-A were applied onto Flashplate microplates and they were incubated at room temperature for 240 minutes in darkness. The radioactivity were quantified by liquid scintillation spectrophotometry (Wallac 1450 Microbeta Trilux) with a count delay of 4 minutes prior to counting and a counting time of 30 seconds per well. Competition binding data were analyzed by using the LIGAND program (Munson and Rodbard, LIGAND: A versatile, computerized approach for characterization of ligand-binding systems. Anal. Biochem. 107: 220-239, 1980) and assays were performed in triplicate determinations for each point.
Consider `O=S(=O)(c1ccccc1Br)N1CCC(CN2CCc3ccccc3C2)CC1` [Compound 22, 2-[1-(2-Bromo-benzenesulfonyl)-piperidin-4-ylmethyl]-1,2,3,4-tetrahydro-isoquinoline hydrochloride], for which the IC50 is 16.8 ± 8 nM.

On to `Cc1cccc(S(=O)(=O)N2CCC(CN3CCc4ccccc4C3)CC2)c1` [Compound 5, 2-[1-(Toluene-3-sulfonyl)-piperidin-4-ylmethyl]-1,2,3,4-tetrahydroisoquinoline hydrochloride], for which the IC50 was 63 nM.

Take `COc1cc2c(cc1OC)CN(CC1CCN(S(=O)(=O)c3ccccc3Cl)CC1)CC2` [Compound 77, 2-[1-(2-Chlorobenzene-sulfonyl)-piperidin-4-ylmethyl]-6,7-dimethoxy-1,2,3,4-tetrahydroisoquinoline hydrochloride]: the IC50 was determined as 41.8 nM.

Take `COc1cc2c(cc1OC)CN(CC1CCN(S(=O)(=O)c3cc(Cl)ccc3Cl)CC1)CC2` [Compound 85, 2-[1-(2,5-Dichloro-benzenesulfonyl)-piperidin-4-ylmethyl]-6,7-dimethoxy-1,2,3,4-tetrahydro-isoquinoline hydrochloride]: the IC50 amounted to 60.7 nM.

For `O=S(=O)(c1cc(F)c(F)cc1Cl)N1CCC(CN2CCc3ccccc3C2)CC1` [Compound 6, 2-[1-(2-Chloro-4,5-difluoro-benzene-sulfonyl)-piperidin-4-ylmethyl]-1,2,3,4-tetrahydroisoquinoline hydrochloride], the IC50 is 18.2 ± 3.7 nM.

As for `O=S(=O)(c1ccccc1Cl)N1CCC(CN2CCc3ccccc3C2)CC1` [Compound 2, 2-[1-(2-Chloro-benzenesulfonyl)-piperidin-4-ylmethyl]-1,2,3,4-tetrahydro-isoquinoline hydrochloride], the IC50 amounted to 28.4 ± 18.2 nM.

For the compound `O=S(=O)(c1cccc2ccccc12)N1CCC(CN2CCc3ccccc3C2)CC1` [Compound 23, 2-[1-(Naphtalene-1-sulfonyl)-piperidin-4-ylmethyl]-1,2,3,4-tetrahydroisoquinoline hydrochloride], the IC50 is 83.4 nM.

As for `Cc1cc(S(=O)(=O)N2CCC(CN3CCc4ccccc4C3)CC2)c(C)cc1Cl` [Compound 16, 2-[1-(4-Chloro-2,5-dimethyl-benzenesulfonyl)-piperidin-4-ylmethyl]-1,2,3,4-tetrahydroisoquinoline hydrochloride], the IC50 came out at 36.1 ± 16 nM.

For the compound `O=S(=O)(c1cc(Cl)ccc1Cl)N1CCC(CN2CCc3ccccc3C2)CC1` [Compound 3, 2-[1-(2,5-Dichloro-benzenesulfonyl)-piperidin-4-ylmethyl]-1,2,3,4-tetrahydro-isoquinoline hydrochloride], the IC50 came out at 76.4 nM.

Take `O=S(=O)(c1cc(Cl)c(F)cc1F)N1CCC(CN2CCc3ccccc3C2)CC1` [Compound 1, 2-[1-(5-Chloro-2,4-difluoro-benzenesulfonyl)-piperidin-4-ylmethyl]-1,2,3,4-tetrahydroisoquinoline hydrochloride]: the IC50 amounted to 70.2 nM.
